Data reported in publication PMC8765251, “Orally administered intelligent self-ablating nanoparticles: a new approach to improve drug cellular uptake and intestinal absorption” (Drug Delivery, 2022).
Like-named read-outs stand apart in the source and are kept apart here.

Test: Pharmacokinetic study
Type: in vivo
Conditions: SD rats; for AUC: serum liraglutide by ELISA, n = 5/group, mean ± SD
Method: SD rats (GemPharmatech Co., Ltd.) weighing 200–220 g were fasted overnight and randomly divided into five groups(n = 5/group): […] The first four groups were administered orally. After a single administration, blood was collected and centrifuged, and serum was collected. An ELISA Kit for liraglutide was used to measure the blood concentration of liraglutide. The assay was performed according to the instructions of the ELISA Kit for liraglutide. The processed samples were tested using a microplate reader (CYT5MV microplate reader, BioTek USA Botten Instruments Co., Ltd.), and the drug concentration was calculated by plotting the curve.

CCCCCCCCCCCCCCCC(=O)N[C@@H](CCC(=O)NCCCC[C@H](NC(=O)[C@H](C)NC(=O)[C@H](C)NC(=O)[C@H](CCC(N)=O)NC(=O)CNC(=O)[C@H](CCC(=O)O)NC(=O)[C@H](CC(C)C)NC(=O)[C@H](Cc1ccc(O)cc1)NC(=O)[C@H](CO)NC(=O)[C@H](CO)NC(=O)[C@@H](NC(=O)[C@H](CC(=O)O)NC(=O)[C@H](CO)NC(=O)[C@@H](NC(=O)[C@H](Cc1ccccc1)NC(=O)[C@@H](NC(=O)CNC(=O)[C@H](CCC(=O)O)NC(=O)[C@H](C)NC(=O)[C@@H](N)Cc1cnc[nH]1)[C@@H](C)O)[C@@H](C)O)C(C)C)C(=O)N[C@@H](CCC(=O)O)C(=O)N[C@@H](Cc1ccccc1)C(=O)N[C@H](C(=O)N[C@@H](C)C(=O)N[C@@H](Cc1c[nH]c2ccccc12)C(=O)N[C@@H](CC(C)C)C(=O)N[C@H](C(=O)N[C@@H](CCCNC(=N)N)C(=O)NCC(=O)N[C@@H](CCCNC(=N)N)C(=O)NCC(=O)O)C(C)C)[C@@H](C)CC)C(=O)O [liraglutide]
BR (relative bioavailability) (oral (i.g.) versus subcutaneous liraglutide, dose-normalised AUC): 5.37% | AUC (single oral administration): 1.06118 ± 0.05655 ng·h/mL | BR (relative bioavailability) (subcutaneous injection, the reference): 100% | AUC (Sprague-Dawley, rat, sc, single subcutaneous injection, read-out: AUC): 1.98 ± 0.109 ng·h/mL
